Laboratory results: ChEMBL document CHEMBL4507268 (2021)

How the values were obtained:
Conditions in all cases: Compound concentration 1.0 uM
[1] = biological target: Tyrosine-protein kinase ABL1 (Homo sapiens) (UniProt P00519)
Homo sapiens = organism: Homo sapiens
[2] = biological target: Dual specificity protein kinase CLK4 (Homo sapiens) (UniProt Q9HAZ1)
[3] = biological target: Fibroblast growth factor receptor 2 (Homo sapiens) (UniProt P21802)
[4] = biological target: T1, Serine/threonine-protein kinase haspin (Homo sapiens) (UniProt Q8TF76)
T1 sequence (whole entry): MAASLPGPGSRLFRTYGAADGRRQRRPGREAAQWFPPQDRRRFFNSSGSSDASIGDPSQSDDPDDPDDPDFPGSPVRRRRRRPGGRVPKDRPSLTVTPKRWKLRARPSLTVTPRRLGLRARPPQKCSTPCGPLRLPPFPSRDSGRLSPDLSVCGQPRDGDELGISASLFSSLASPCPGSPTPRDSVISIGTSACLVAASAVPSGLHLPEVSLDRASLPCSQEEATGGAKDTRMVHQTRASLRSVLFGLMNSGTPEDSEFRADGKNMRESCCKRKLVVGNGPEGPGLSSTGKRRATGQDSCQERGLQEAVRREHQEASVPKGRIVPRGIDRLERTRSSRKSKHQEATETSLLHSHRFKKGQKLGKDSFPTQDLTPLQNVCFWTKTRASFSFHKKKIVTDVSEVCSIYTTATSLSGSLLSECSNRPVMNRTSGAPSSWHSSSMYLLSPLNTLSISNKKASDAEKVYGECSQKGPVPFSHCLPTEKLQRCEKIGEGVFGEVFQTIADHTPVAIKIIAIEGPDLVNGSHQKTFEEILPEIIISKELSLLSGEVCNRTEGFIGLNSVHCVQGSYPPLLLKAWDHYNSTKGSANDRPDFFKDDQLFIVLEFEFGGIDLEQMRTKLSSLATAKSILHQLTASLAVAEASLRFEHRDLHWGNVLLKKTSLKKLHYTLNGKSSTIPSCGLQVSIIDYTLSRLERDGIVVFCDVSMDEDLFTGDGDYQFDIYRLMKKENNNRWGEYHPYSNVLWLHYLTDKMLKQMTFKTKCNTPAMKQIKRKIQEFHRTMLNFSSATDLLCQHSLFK

[5] = biological target: Tyrosine-protein kinase HCK (Homo sapiens) (UniProt P08631)
[6] = biological target: T2, Mitogen-activated protein kinase 13 (Homo sapiens) (UniProt O15264)
T2 sequence (whole entry): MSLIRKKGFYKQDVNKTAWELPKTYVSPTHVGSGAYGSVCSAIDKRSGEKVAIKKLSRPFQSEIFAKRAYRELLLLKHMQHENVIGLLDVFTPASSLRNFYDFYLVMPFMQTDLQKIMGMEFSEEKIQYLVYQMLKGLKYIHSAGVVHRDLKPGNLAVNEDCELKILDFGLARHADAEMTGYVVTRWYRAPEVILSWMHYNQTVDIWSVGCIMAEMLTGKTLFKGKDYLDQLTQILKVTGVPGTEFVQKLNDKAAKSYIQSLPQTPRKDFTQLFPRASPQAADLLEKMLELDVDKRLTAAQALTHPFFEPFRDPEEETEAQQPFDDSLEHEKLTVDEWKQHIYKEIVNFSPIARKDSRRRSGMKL

[7] = biological target: T3, Serine/threonine-protein kinase Sgk1 (Homo sapiens) (UniProt O00141)
T3 sequence (whole entry): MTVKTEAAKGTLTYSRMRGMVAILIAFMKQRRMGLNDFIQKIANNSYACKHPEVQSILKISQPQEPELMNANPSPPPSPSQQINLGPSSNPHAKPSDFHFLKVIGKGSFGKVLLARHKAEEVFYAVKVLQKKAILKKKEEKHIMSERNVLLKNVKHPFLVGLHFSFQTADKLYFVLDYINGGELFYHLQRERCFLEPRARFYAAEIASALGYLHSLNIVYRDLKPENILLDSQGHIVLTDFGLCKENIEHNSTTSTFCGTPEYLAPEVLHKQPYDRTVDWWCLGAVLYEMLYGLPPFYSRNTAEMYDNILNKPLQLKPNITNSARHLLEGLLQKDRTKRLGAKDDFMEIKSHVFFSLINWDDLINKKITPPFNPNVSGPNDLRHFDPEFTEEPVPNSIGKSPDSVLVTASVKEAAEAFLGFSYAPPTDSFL

[8] = biological target: Serine/threonine-protein kinase PLK2 (Homo sapiens) (UniProt Q9NYY3)

Measured: % residual kinase activity

Sequence of Tyrosine-protein kinase HCK (Homo sapiens) (P08631 2-526 limits assumed): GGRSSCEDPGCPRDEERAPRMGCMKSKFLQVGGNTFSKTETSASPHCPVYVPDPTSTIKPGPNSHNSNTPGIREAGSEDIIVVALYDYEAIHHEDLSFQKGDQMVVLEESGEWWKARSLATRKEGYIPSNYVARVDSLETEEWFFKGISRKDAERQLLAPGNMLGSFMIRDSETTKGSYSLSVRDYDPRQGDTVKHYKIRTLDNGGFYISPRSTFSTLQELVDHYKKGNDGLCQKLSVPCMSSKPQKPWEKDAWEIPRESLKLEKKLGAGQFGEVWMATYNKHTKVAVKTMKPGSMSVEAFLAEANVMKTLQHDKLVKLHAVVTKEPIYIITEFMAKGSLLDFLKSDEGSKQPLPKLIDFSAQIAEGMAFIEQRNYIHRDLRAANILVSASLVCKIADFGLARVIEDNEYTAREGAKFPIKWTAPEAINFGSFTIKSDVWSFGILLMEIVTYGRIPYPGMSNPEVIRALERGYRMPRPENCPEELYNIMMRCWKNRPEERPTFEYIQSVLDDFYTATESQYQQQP
Sequence of Tyrosine-protein kinase ABL1 (Homo sapiens) (P00519 whole entry): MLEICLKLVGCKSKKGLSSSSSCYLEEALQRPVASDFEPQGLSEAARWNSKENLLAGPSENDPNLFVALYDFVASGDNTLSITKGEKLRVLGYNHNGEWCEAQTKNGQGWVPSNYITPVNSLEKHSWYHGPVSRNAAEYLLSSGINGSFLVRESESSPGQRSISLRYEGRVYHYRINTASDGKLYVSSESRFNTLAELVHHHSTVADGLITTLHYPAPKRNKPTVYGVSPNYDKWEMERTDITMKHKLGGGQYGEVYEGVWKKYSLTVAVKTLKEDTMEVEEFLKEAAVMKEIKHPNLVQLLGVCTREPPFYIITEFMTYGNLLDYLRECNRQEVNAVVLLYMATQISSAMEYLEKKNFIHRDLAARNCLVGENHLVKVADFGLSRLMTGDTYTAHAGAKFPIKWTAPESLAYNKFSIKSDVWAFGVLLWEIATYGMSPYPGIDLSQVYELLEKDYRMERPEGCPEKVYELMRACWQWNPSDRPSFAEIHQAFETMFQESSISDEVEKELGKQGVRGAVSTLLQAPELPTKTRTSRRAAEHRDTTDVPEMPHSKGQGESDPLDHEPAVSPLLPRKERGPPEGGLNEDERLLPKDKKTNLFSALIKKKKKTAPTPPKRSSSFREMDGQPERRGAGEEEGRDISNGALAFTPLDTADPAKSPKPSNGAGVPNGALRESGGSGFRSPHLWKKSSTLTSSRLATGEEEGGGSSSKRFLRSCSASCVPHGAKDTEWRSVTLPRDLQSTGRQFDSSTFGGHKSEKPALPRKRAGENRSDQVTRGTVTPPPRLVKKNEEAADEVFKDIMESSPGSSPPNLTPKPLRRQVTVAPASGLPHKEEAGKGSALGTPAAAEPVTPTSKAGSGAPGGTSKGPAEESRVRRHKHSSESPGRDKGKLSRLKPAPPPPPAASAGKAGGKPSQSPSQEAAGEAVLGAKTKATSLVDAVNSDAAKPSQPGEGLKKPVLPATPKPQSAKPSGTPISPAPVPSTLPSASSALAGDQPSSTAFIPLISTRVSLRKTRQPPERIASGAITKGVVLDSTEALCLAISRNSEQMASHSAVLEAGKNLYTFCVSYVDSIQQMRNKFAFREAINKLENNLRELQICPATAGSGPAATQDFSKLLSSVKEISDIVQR
Sequence of Dual specificity protein kinase CLK4 (Homo sapiens) (Q9HAZ1 whole entry, looked up): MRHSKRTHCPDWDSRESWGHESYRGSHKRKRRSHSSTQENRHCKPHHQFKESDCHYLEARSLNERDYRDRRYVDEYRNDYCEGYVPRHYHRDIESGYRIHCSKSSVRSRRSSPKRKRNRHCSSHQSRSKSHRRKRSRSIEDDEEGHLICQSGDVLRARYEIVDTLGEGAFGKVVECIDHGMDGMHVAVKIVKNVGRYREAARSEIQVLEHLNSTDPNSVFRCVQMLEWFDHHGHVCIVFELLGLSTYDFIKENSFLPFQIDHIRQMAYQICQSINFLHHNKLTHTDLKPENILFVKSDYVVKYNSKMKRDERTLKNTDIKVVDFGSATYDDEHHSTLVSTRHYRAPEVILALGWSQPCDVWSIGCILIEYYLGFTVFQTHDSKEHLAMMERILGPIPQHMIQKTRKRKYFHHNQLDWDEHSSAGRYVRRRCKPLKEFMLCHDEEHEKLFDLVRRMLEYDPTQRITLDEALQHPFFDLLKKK
Sequence of Serine/threonine-protein kinase PLK2 (Homo sapiens) (Q9NYY3 whole entry, looked up): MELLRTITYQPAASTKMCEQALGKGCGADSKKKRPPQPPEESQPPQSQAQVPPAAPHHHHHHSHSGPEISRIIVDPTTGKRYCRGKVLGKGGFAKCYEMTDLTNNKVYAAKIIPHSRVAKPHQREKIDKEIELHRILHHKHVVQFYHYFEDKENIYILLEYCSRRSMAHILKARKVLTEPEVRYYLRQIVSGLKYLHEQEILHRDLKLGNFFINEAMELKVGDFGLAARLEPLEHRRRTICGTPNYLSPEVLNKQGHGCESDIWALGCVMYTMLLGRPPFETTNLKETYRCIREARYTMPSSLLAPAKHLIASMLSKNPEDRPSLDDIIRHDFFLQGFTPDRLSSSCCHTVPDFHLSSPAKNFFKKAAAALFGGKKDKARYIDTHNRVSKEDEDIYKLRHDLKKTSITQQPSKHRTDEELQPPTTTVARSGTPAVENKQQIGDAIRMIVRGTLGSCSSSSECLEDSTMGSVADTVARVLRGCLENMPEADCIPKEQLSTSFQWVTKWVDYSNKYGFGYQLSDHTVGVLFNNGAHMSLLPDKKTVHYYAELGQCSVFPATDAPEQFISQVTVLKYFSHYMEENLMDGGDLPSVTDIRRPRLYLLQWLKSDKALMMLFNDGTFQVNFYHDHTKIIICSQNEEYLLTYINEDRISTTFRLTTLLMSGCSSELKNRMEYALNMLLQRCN
Sequence of Fibroblast growth factor receptor 2 (Homo sapiens) (P21802 22-821 limits assumed): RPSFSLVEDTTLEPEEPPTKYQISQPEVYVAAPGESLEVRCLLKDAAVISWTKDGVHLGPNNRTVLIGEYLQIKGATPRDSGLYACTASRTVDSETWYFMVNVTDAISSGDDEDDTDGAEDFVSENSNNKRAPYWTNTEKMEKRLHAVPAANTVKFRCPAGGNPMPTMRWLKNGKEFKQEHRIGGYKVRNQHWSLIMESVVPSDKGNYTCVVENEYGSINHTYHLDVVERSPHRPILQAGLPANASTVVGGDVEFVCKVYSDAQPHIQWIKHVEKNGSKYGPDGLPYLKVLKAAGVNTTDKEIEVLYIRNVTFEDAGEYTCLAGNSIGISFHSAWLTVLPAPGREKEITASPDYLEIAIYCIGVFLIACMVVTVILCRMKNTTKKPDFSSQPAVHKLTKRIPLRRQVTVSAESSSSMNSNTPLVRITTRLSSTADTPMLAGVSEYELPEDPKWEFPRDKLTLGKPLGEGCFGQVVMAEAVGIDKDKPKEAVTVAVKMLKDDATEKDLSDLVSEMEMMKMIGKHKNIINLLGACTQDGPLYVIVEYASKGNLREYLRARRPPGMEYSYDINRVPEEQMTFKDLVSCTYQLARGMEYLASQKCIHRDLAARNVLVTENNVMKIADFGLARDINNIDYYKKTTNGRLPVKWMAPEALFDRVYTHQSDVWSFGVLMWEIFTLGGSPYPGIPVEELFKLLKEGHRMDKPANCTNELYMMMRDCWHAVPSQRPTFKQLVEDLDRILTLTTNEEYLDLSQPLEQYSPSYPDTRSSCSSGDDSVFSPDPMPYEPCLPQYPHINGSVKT

CN1CCN(c2cnc3c(C4CCN(C(=O)c5ccc(OC(F)(F)F)cc5N)CC4)ncnc3c2)CC1 [BAY-885]
inactive: [1] 100% | Homo sapiens 107% | [2] 118% | [3] 107% | [4] 105% | [5] 95% | [6] 112% | [7] 113% | [8] 119%
